Where no end group is shown, it is not given here. [ ]: non-standard residue; d: D form. Cy5 = Cy5 fluorophore label; code o = not defined here; QSY21 = quencher dye
What was measured:
[1] = tested on: CD45-, CD11b- cells from lungs; test: Activity-based cell sorting / flow cytometry after QZ1 administration; format: in vivo, mouse
Experimental: Eml4-Alk mice (10-12 weeks post tumor induction) and age- and sex-matched C57BL/6J healthy controls (Jackson Labs; 18-22 weeks) were euthanized by isoflurane overdose, and lungs were excised, separated into lobes, and kept in a round cell culture dish (ThermoFisher) on ice. For tumor-bearing lungs, tumors were separated from healthy tissue using forceps and scissors under a dissecting microscope, and the dissected tumors and surrounding tissue were kept in 5 mL Eppendorf tubes (Sigma Aldrich) for preparation into single-cell suspension. Tissue was minced using Noyes spring scissors (Fine Science Tools) until pieces were less than 1 cm in size, with the visual appearance of ground meat. […]
Single cell lung suspensions from Eml4-Alk mice administered QZ1 were stained with the following antibodies (catalog number, vendor, clone, fluorophore, dilution): CD44 (563508, BD, IM7, BV605, 1:200), CD105 (564746, BD, MJ7/18, BV786, 1:200), Ly6-A/E (12-5981-81, ThermoFisher, D7, PE, 1:200), CD11b (557657, BD, M1/70, APC-Cy7, 1:200), CD45 (566439, BD, 30-F11, AF488, 1:400), and EpCAM (118216, BioLegend™, G8.8, PE-Cy7, 1:200). […] Flow cytometry data was analyzed by the FlowJo software (Treestar). […]

Eml4-Alk lungs = test: In vivo administration of QZ1-(PEG2K), IVIS imaging of explanted lungs; design: species or system mouse; conditions: two hours post intravenous injection
Experimental: QZ1 (Table 4) was reconstituted to 1 mg/mL in water, then reacted with mPEG-Maleimide, MW 2000 g/mol (Laysan Bio), for PEG coupling via maleimide-thiol chemistry. After completion of the reaction, the final compound was purified using HPLC. All reactions were monitored using HPLC connected with mass spectrometry. […] Eml4-Alk mice (11-12 weeks post tumor induction) and age- and sex-matched C57BL/6J healthy controls (Jackson Labs; 18-22 weeks) were anesthetized using isoflurane inhalation (Zoetis). QZ1-(PEG2K) (4.5 nmoles in 0.9% NaCl) was administered intravenously via tail vein injection. Two hours after probe injection, mice were imaged on an in vivo imaging system (IVIS, PerkinElmer) by exciting Cy5 at 640 nm and measuring emission at 680 nm. Mice were subsequently euthanized by isoflurane overdose followed by cervical dislocation. Lungs were dissected and explanted for imaging via IVIS. Fluorescence signal intensity was quantified using the Living Image software (PerkinElmer, v4).

[2] = molecular target: T1, recombinant fibroblast activation protein (FAP) (Homo sapiens, UniProt Q12884); test: Quenched probe cleavage by recombinant FAP (fluorescence activation); format: biochemical; conditions: quenched probe Q1 incorporating S1
T1 sequence (Q12884 26-760 limits assumed): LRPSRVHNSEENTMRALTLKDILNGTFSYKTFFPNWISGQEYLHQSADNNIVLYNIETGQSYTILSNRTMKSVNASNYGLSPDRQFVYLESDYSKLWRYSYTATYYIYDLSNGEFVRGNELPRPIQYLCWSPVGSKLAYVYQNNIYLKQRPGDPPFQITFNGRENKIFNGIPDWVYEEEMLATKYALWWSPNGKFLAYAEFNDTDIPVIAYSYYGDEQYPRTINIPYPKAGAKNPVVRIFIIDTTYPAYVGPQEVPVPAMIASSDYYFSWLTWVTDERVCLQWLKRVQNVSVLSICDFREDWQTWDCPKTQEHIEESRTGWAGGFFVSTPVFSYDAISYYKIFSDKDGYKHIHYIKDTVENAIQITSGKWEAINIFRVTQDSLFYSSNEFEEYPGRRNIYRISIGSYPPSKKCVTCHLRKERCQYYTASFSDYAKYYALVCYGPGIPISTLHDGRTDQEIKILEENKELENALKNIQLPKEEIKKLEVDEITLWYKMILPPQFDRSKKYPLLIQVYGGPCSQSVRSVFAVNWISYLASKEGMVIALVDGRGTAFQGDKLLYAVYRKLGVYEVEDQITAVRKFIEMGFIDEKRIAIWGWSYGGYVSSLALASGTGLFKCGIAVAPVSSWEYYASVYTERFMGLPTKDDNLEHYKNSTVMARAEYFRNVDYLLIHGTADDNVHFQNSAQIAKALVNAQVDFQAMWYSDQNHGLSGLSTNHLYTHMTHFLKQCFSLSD
Experimental: FIG. 10. Fibroblast activation protein (FAP) cleaves S1 in vitro. The quenched probe Q1, incorporating the substrate S1, was incubated with recombinant FAP, and fluorescence activation was monitored over time (n=2 replicates; mean t s.d.).

| cleavage by FAP in vitro [2] | Substance | QZ1 staining in cells positive for mesenchymal cell markers ([1]; Eml4-Alk lungs, CD44, CD105, Ly-6A/E) | QZ1 staining in cells positive for mesenchymal cell markers ([1]; healthy lungs, separate experiment) | Cy5 fluorescence in explanted Eml4-Alk lungs relative to healthy lungs (Eml4-Alk lungs) |
| --- | --- | --- | --- | --- |
| – | (QSY21)-eeeeeeeee-c(PEG2K)-oGGPQGIWGQG-rrrrrrrrr-k(Cy5) (QSY21-[dE][dE][dE][dE][dE][dE][dE][dE][dE][dC](PEG2K)[code o]GGPQGIWGQG[dR][dR][dR][dR][dR][dR][dR][dR][dR][dK](Cy5); reading uncertain; also: X11: 5-amino-3-oxopentanoyl, other spacer, or absent, printed as (QSY21)-eeeeeeeee-c(PEG2K)-oGGPQGIWGQG-rrrrrrrrr-k(Cy5)) [QZ1, PEGylated quenched probe] | increased QZ1 staining | more variable pattern | significantly increased |
| cleaves | GGPQGIWGQC [S1] | – | – | – |

Source: US20250003968A1, “ACTIVITY-BASED CELL SORTING” (MASSACHUSETTS INSTITUTE OF TECHNOLOGY, priority 2021, published 2025)
